Experimental data from US10278942B2 (PELOTON THERAPEUTICS, INC., priority 2015, dated 2019).

Columns and labels:
[1] = test system: 786-O-Hif-Luc cells; assay: Luciferase Assay (HIF responsive elements reporter); conditions: read-out: Mean Luciferase EC50 (nM), 786-O-Hif-Luc cells
Procedure: A pool of infected cells were then selected against 2 μg/mL of puromycin (P8833, Sigma) for 10 days followed by limited dilution to select single clones. […] Each concentration was tested in triplicate. After about 24 hours, luciferase activity was determined using ONE-Glo Luciferase Assay Reagent (E6110, Promega) following the manufacturer's recommended procedure. EC50 were calculated using Dotmatics software.

[2] = biological target: T1, HIF-2α HIS TAG-PASB Domain (Homo sapiens, UniProt Q99814); assay: HIF-2α Scintillation Proximity Assay (SPA); assay type: binding; conditions: read-out: Scintillation Proximity Assay IC50
T1 construct: 100 nM HIF-2α HIS TAG-PASB Domain
In short: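 IC50 values rest on percent inhibition, where the sample signal is scaled between high and low controls. Wells contain about 100 μL: compound dispensed as 2 μL of DMSO solution, 88 μL protein-probe mix and 10 μL of beads.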

T1 sequence (Q99814 240-350 limits assumed): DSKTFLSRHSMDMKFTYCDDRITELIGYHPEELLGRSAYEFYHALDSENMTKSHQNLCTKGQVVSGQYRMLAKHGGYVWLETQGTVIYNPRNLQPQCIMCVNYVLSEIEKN

SMILES | EC50 [1] [nM] | IC50 [2] [nM]
O=S(=O)(c1ccc(C2=CC(O)CCC2)c2c1[C@H](O)C(F)(F)C2)C(F)(F)F (stereo partly drawn) [Compound 481, (1S)-2,2-difluoro-4-(3-hydroxycyclohex-1-en-1-yl)-7-((trifluoromethyl)sulfonyl)-2,3-dihydro-1H-inden-1-ol] | > 1000 | 250 to 1000
O=S(=O)(c1ccc([C@@H]2CCC[C@H](O)C2)c2c1[C@H](O)C(F)(F)C2)C(F)(F)F [Compound 482, (S)-2,2-difluoro-4-((1R,3S)-3-hydroxycyclohexyl)-7-((trifluoromethyl)sulfonyl)-2,3-dihydro-1H-inden-1-ol] | 250 to 1000 | 250 to 1000
O=S(=O)(c1ccc([C@H]2CCC[C@@H](O)C2)c2c1[C@H](O)C(F)(F)C2)C(F)(F)F [Compound 483] | 250 to 1000 | < 50
O=S(=O)(c1ccc(-c2cccc(Cl)c2)c2c1[C@H](O)C(F)(F)C2)C(F)(F)F [Compound 485, (S)-4-(3-chlorophenyl)-2,2-difluoro-7-((trifluoromethyl)sulfonyl)-2,3-dihydro-1H-inden-1-ol] | > 1000 | < 50
N#Cc1cc(F)cc(-c2ccc(S(=O)(=O)C(F)(F)F)c3c2CC(F)(F)[C@H]3O)c1 [Compound 486, (S)-3-(2,2-difluoro-1-hydroxy-7((trifluoromethyl)sulfonyl)-2,3-dihydro-1H-inden-4-yl)-5-fluorobenzonitrile] | 50 to 249 | < 50
O=S(=O)(c1ccc(-c2ccccc2)c2c1[C@H](O)C(F)(F)C2)C(F)(F)F [Compound 487, (S)-2,2-difluoro-4-phenyl-7-((trifluoromethyl)sulfonyl)-2,3-dihydro-1H-inden-1-ol] | > 1000 | 250 to 1000
N#Cc1cncc(Nc2ccc(S(=O)(=O)C(F)(F)F)c3c2CC(F)(F)[C@H]3O)c1 [Compound 488, (S)-5-((2,2-difluoro-1-hydroxy-7-((trifluoromethyl)sulfonyl)-2,3-dihydro-1H-inden-4-yl)amino)nicotinonitrile] | 50 to 249 | 50 to 249
CS(=O)(=O)c1ccc(Sc2cc(F)cc(Cl)c2)c2c1[C@H](O)C(F)(F)[C@@H]2F [Compound 491, (1S,3R)-4-((3-chloro-5-fluorophenyl)thio)-2,2,3-trifluoro-7-(methylsulfonyl)-2,3-dihydro-1H-inden-1-ol] | > 1000 | < 50
CS(=O)(=O)c1ccc(Sc2cccc(C#N)c2)c2c1[C@H](O)C(F)(F)[C@@H]2F [Compound 492, 3-(((1S,3R)-2,2,3-trifluoro-1-hydroxy-(methylsulfonyl)-2,3-dihydro-1H-inden-4-yl)thio)benzonitrile] | > 1000 | > 1000
O=S(=O)(c1ccc(CCO)c2c1[C@H](O)C(F)(F)C2)C(F)(F)F [Compound 496, (S)-2,2-difluoro-4-(2-hydroxyethyl)-7-((trifluoromethyl)sulfonyl)-2,3-dihydro-1H-inden-1-ol] | > 1000 | 250 to 1000
N#Cc1cc(F)cc(Nc2ccc(S(=O)(=O)C(F)(F)F)c3c2CCC3O)c1 (centres unmarked) [Compound 505] | 250 to 1000 | 250 to 1000
O=S(=O)(c1ccc(Nc2cc(F)cc(F)c2)c2c1C(O)CC2)C(F)(F)F (centres unmarked) [Compound 506] | > 1000 | 250 to 1000
O=S(=O)(c1ccc(CC2CCCCC2)c2c1C(O)C(F)(F)C2)C(F)(F)F (centres unmarked) [Compound 509] | > 1000 | < 50
O=S(=O)(c1ccc(Cc2ccccc2)c2c1C(O)C(F)(F)C2)C(F)(F)F (centres unmarked) [Compound 511] | > 1000 | 250 to 1000
O=S(=O)(c1ccc(C2CC2)c2c1C(O)C(F)(F)C2)C(F)(F)F (centres unmarked) [Compound 513] | > 1000 | 250 to 1000
CCc1ccc(S(=O)(=O)C(F)(F)F)c2c1CC(F)(F)C2O (centres unmarked) [Compound 516] | > 1000 | > 1000
CCCc1ccc(S(=O)(=O)C(F)(F)F)c2c1CC(F)(F)C2O (centres unmarked) [Compound 517] | 250 to 1000 | 50 to 249
NC(=O)Cc1ccc(S(=O)(=O)C(F)(F)F)c2c1CCC2O (centres unmarked) [Compound 523, 2-[1-hydroxy-7-(trifluoromethylsulfonyl)indan-4-yl]acetamide] | 50 to 249 | 250 to 1000
O=S(=O)(c1ccc(Nc2cc(F)cc(F)c2)c2c1[C@H](O)CC2)C(F)(F)F [Compound 531] | 250 to 1000 | 250 to 1000
O=S(=O)(c1ccc(Cn2cncn2)c2c1[C@H](O)C(F)(F)C2)C(F)(F)F [Compound 534] | > 1000 | > 1000
N#Cc1cnn(Cc2ccc(S(=O)(=O)C(F)(F)F)c3c2CC(F)(F)[C@H]3O)c1 [Compound 538] | > 1000 | > 1000
CC1(C)CCC(=O)[C@H](c2ccc(S(=O)(=O)C(F)(F)F)c3c2CC(F)(F)[C@H]3O)C1 [Compound 542] | > 1000 | 250 to 1000
CC1(C)CC[C@@H](O)[C@@H](c2ccc(S(=O)(=O)C(F)(F)F)c3c2CC(F)(F)[C@H]3O)C1 [Compound 545] | > 1000 | 50 to 249
CC1(C)CC[C@@H](O)[C@H](c2ccc(S(=O)(=O)C(F)(F)F)c3c2CC(F)(F)[C@H]3O)C1 [Compound 547] | 50 to 249 | 50 to 249
CC1(C)C[C@H](O)C[C@@H](c2ccc(S(=O)(=O)C(F)(F)F)c3c2CC(F)(F)[C@H]3O)C1 [Compound 549] | 50 to 249 | < 50
CC1(C)C[C@@H](O)C[C@@H](c2ccc(S(=O)(=O)C(F)(F)F)c3c2CC(F)(F)[C@H]3O)C1 [Compound 550] | 250 to 1000 | < 50
CC1(C)CC(c2ccc(S(=O)(=O)C(F)(F)F)c3c2CC(F)(F)[C@H]3O)=CC(O)C1 (some centres unmarked) [Compound 551] | > 1000 | 50 to 249
CS(=O)(=O)c1ccc(C(F)(F)CO)c2c1C(O)CC2 (centres unmarked) [Compound 554] | > 1000 | 50 to 249

SMILES | EC50 [1] [nM] | IC50 [2] [nM]
O=S(=O)(c1ccc(-c2cc(F)cc(Cl)c2)c2c1[C@H](O)C(F)(F)C2)C(F)(F)F [Compound 557] | 250 to 1000 | < 50
O=S(=O)(c1ccc(-c2cccnc2)c2c1[C@H](O)C(F)(F)C2)C(F)(F)F [Compound 558] | > 1000 | > 1000
O=S(=O)(c1ccc(-c2ccc(Cl)cc2)c2c1[C@H](O)C(F)(F)C2)C(F)(F)F [Compound 563] | 250 to 1000 | 50 to 249
O=S(=O)(c1ccc(-c2ccccc2Cl)c2c1[C@H](O)C(F)(F)C2)C(F)(F)F [Compound 565] | > 1000 | > 1000
N#Cc1cccc(-c2ccc(S(=O)(=O)C(F)(F)F)c3c2CC(F)(F)[C@H]3O)c1 [Compound 569] | 250 to 1000 | 50 to 249
N#Cc1cncc(-c2ccc(S(=O)(=O)C(F)(F)F)c3c2CC(F)(F)[C@H]3O)c1 [Compound 570] | > 1000 | > 1000
O=S(=O)(c1ccc(OCC2(F)COC2)c2c1[C@H](O)C(F)(F)C2)C(F)(F)F [Compound 573] | 50 to 249 | < 50
CS(=O)(=O)c1ccc(OC2CC(F)(F)C2)c2c1[C@H](O)C(F)(F)[C@H]2F [Compound 575, (1S,3S)-4-(3,3-difluorocyclobutoxy)-2,2,3-trifluoro-7-(methylsulfonyl)-2,3-dihydro-1H-inden-1-ol] | > 1000 | 250 to 1000
O/N=C1/c2c(C(F)(F)F)ccc(OCC(F)F)c2CC1(F)F [Compound 580] | > 1000 | 250 to 1000
O/N=C1/c2c(C(F)(F)F)ccc(OCCCF)c2[C@@H](F)C1(F)F [Compound 581] | > 1000 | < 50
O[C@H]1c2c(C(F)(F)F)ccc(OCCCF)c2[C@@H](F)C1(F)F [Compound 582] | < 50 | < 50
CCCOc1ccc(S(=O)(=O)C(F)(F)F)c2c1CC(F)(F)C2O (centres unmarked) [Compound 584] | < 50 | 50 to 249
CS(=O)(=O)c1ccc(OC2CC(F)(F)C2)c2c1[C@H](O)[C@H](F)C2 [Compound 585] | 250 to 1000 | < 50
OC1c2c(C(F)F)ccc(OCC(F)F)c2CC1(F)F (centres unmarked) [Compound 586] | > 1000 | 50 to 249
CCOc1ccc(S(=O)(=O)C(F)(F)F)c2c1CC(F)(F)C2O (centres unmarked) [Compound 591] | 250 to 1000 | 250 to 1000
CC(C)Oc1ccc(S(=O)(=O)C(F)(F)F)c2c1CC(F)(F)C2O (centres unmarked) [Compound 593] | 50 to 249 | < 50
COCC(C)Oc1ccc(S(=O)(=O)C(F)(F)F)c2c1CC(F)(F)C2O (centres unmarked) [Compound 594] | 50 to 249 | < 50
COCCOc1ccc(S(=O)(=O)C(F)(F)F)c2c1CC(F)(F)C2O (centres unmarked) [Compound 595] | 250 to 1000 | 250 to 1000
O=S(=O)(c1ccc(OCC2CC2)c2c1C(O)C(F)(F)C2)C(F)(F)F (centres unmarked) [Compound 598] | 50 to 249 | 50 to 249
O=S(=O)(c1ccc(OC2CCC2)c2c1C(O)CC2)C(F)(F)F (centres unmarked) [Compound 601] | > 1000 | 250 to 1000
O=S(=O)(c1ccc(OC2CCC2)c2c1C(O)C(F)(F)C2)C(F)(F)F (centres unmarked) [Compound 602] | < 50 | < 50
O=S(=O)(c1ccc(OC2CCCC2)c2c1C(O)CC2)C(F)(F)F (centres unmarked) [Compound 603] | > 1000 | 250 to 1000
O=S(=O)(c1ccc(OC2CCOC2)c2c1C(O)C(F)(F)C2)C(F)(F)F (centres unmarked) [Compound 604] | 50 to 249 | 50 to 249
O=S(=O)(c1ccc(OC2CCNCC2)c2c1C(O)C(F)(F)C2)C(F)(F)F (centres unmarked) [Compound 607] | > 1000 | < 50
COCCCOc1ccc(S(=O)(=O)C(F)(F)F)c2c1CC(F)(F)C2O (centres unmarked) [Compound 608] | 250 to 1000 | < 50
CC(C)(C#N)COc1ccc(S(=O)(=O)C(F)(F)F)c2c1CCC2O (centres unmarked) [Compound 609] | > 1000 | 50 to 249
O=S(=O)(c1ccc(OCCCO)c2c1C(O)C(F)(F)C2)C(F)(F)F (centres unmarked) [Compound 612] | > 1000 | 250 to 1000
